Source: patent US20260240818A1, “METHODS FOR THE TREATMENT OF FOOD ALLERGY” (INSTITUT NATIONAL DE LA SANTÉ ET DE LA RECHERCHE MÉDICALE, priority 2023, published 2026)
Entries after “also recorded” stand apart in the source; their conditions may differ.

Tests used:
[1] = test system: peanut-sensitized mice; assay: Peanut allergy mouse model: clinical score and diarrhoea after oral peanut extract challenge; type: in vivo; settings: for clinical score / incidence of diarrhoea: FOS-enriched diet; for clinical score: average of days 1-3 of oral PE challenge; for incidence of diarrhoea: oral PE challenge
Method: All mice were bred and maintained on a peanut- and soy-free diet under specific pathogen-free conditions until the start of the experiment.
Pyridoxamine: pyridoxamine dihydrochloride (Sigma-Aldrich, France) is added to drinking water at 1 mg/ml throughout the experiment.
RAGE antagonist FPS-ZM1: twice weekly 100 μl IP injections of FPS-ZM1 in PBS (Sigma Aldrich, France) at 0 (control group), 0.5, or 1 mg/kg b.w. were performed throughout the experiment.
Clinical score (Table 2) was continually observed from 15 to 50 minutes after oral allergen challenge and noted for each mouse. For analysis purposes, the average clinical score of the first 3 days of challenge is calculated for each mouse.
Experimental groups were compared by One-Way ANOVA, selected groups were compared using Holm-Sidak's correction for multiple comparisons. For diarrhoea data, pairwise comparisons of survival curves were performed and analysed by Mantel-Cox log-rank test.

[2] = test system: peanut-specific IgE; assay: Peanut-specific IgE ELISA on serum from the peanut allergy model; type: in vivo, mouse; settings: FOS-enriched diet, serum after last PE challenge
Method: On days 1, 7, and 21 mice were sensitized with 500 μg of peanut extract (PE) together with 2 mg of Imject alum (Thermo Fisher, France) by intraperitoneal (IP) injection (100 μl in PBS). Starting from day 35, for 7 days, mice were challenged with 30 mg of PE in NaHCO3 (0.1M) by oral gavage, and clinical score (Table 2) and occurrence of diarrhoea was registered for 1 hours after each gavage. After the last challenge, blood is collected for serum extraction. Non-allergic control animals were sham sensitized (2 mg alum but no peanut extract) but challenged like the other experimental groups. Peanut Extract (PE) was coated on ELISA plates at 5 μg/ml in 0.05 M sodium carbonate-bicarbonate buffer (Sigma-Aldrich, France) over-night at 4° C., plates were washed 3 times with PBS-0.05% Tween 20 (Sigma-Aldrich, France). […] Sample preparation: Mouse serum from blood collected 1 hour after the last oral peanut challenge was diluted 1/50 in ELISA assay buffer (1×) from the ELISA kit used. The colorimetric reaction was stopped by addition of H2SO4 (5M) and absorbance was recorded at 450 nm.

[3] = pyridoxamine 1 mg/ml in drinking water throughout
[4] = FPS-ZM1 0.5 or 1 mg/kg b.w. i.p. twice weekly

| SMILES | aggravating effects of the FOS-enriched diet on peanut allergic reactions [1, 3] | clinical score [1, 3] | incidence of diarrhoea [1, 3] | serum peanut-specific IgE levels [2, 3] | FOS-induced aggravating effects in a mouse model of peanut allergy [1, 4] | clinical score [1, 4] | incidence of diarrhoea [1, 4] | allergen-specific IgE levels [2, 4] |
| --- | --- | --- | --- | --- | --- | --- | --- | --- |
| Cc1ncc(CO)c(CN)c1O [pyridoxamine] | eliminates; also recorded: block | reduced | reduced | reduced |  |  |  |  |
| O=C(c1ccc(Cl)cc1)N(Cc1ccccc1)C1CCCCC1 [FPS-ZM1, 4-Chloro-N-cyclohexyl-N-(phenylmethyl)benzamide] |  |  |  |  | eliminates; also recorded: limit | lowering | lowering | lowering |
